Measurements published in PubChem BioAssay AID1963430 (Molecular Pharmacology Branch, DTP, NCI, 2024).
“And” between values parts separate entries of the source, which are not always exact repeats. Equal entries are not always repeated.

System: 521955-158-R2-J5-PDC complex spheroid growth, % test/control
Assay: Anticancer human tumor 521955-158-R2-J5-PDC patient-derived pancreatic carcinoma cell line growth inhibition [Asc]
Details: for viability, T/C: stronger effect = lower value
How it was run: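 Tumor cells were grown as complex spheroids with human endothelial cells (HUVEC) and human mesenchymal stem cells as stroma. Agents were tested alone and in combination, in half-log steps down from the clinical Cmax, or from 10 microM where Cmax was unknown.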

[1] = curve of first compound, second compound 0.03 µM
[2] = curve of first compound, second compound 0.0949 µM
[3] = curve of first compound, second compound 0.3 µM
[4] = curve of first compound, second compound 0.949 µM
[5] = curve of first compound, second compound 3 µM
[6] = second compound 0.03 µM, first compound 0.0316 µM
[7] = second compound 0.03 µM, first compound 0.1 µM
[8] = second compound 0.03 µM, first compound 0.316 µM
[9] = second compound 0.03 µM, first compound 1 µM
[10] = second compound 0.0949 µM, first compound 0.0316 µM
[11] = second compound 0.0949 µM, first compound 0.1 µM
[12] = second compound 0.0949 µM, first compound 0.316 µM
[13] = second compound 0.0949 µM, first compound 1 µM
[14] = second compound 0.3 µM, first compound 0.0316 µM
[15] = second compound 0.3 µM, first compound 0.1 µM
[16] = second compound 0.3 µM, first compound 0.316 µM
[17] = second compound 0.3 µM, first compound 1 µM
[18] = second compound 0.949 µM, first compound 0.0316 µM
[19] = second compound 0.949 µM, first compound 0.1 µM
[20] = second compound 0.949 µM, first compound 0.316 µM
[21] = second compound 0.949 µM, first compound 1 µM
[22] = second compound 3 µM, first compound 0.0316 µM
[23] = second compound 3 µM, first compound 0.1 µM
[24] = second compound 3 µM, first compound 0.316 µM
[25] = second compound 3 µM, first compound 1 µM
[26] = curve of first compound, second compound 0.1 µM
[27] = curve of first compound, second compound 0.316 µM
[28] = curve of first compound, second compound 1 µM
[29] = curve of first compound, second compound 3.16 µM
[30] = curve of first compound, second compound 10 µM
[31] = second compound 0.1 µM, first compound 0.0316 µM
[32] = second compound 0.1 µM, first compound 0.1 µM
[33] = second compound 0.1 µM, first compound 0.316 µM
[34] = second compound 0.1 µM, first compound 1 µM
[35] = second compound 0.316 µM, first compound 0.0316 µM
[36] = second compound 0.316 µM, first compound 0.1 µM
[37] = second compound 0.316 µM, first compound 0.316 µM
[38] = second compound 0.316 µM, first compound 1 µM
[39] = second compound 1 µM, first compound 0.0316 µM
[40] = second compound 1 µM, first compound 0.1 µM
[41] = second compound 1 µM, first compound 0.316 µM
[42] = second compound 1 µM, first compound 1 µM
[43] = second compound 3.16 µM, first compound 0.0316 µM
[44] = second compound 3.16 µM, first compound 0.1 µM
[45] = second compound 3.16 µM, first compound 0.316 µM
[46] = second compound 3.16 µM, first compound 1 µM
[47] = second compound 10 µM, first compound 0.0316 µM
[48] = second compound 10 µM, first compound 0.1 µM
[49] = second compound 10 µM, first compound 0.316 µM
[50] = second compound 10 µM, first compound 1 µM
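Further: spheroids exposed to agents for 7 days before readout.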
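Wherever viability, T/C is given: 100% = DMSO vehicle control viability.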

CNC(C)C(=O)NC1CN(S(=O)(=O)c2cccc(S(=O)(=O)N3CCC4CCC(C(=O)NC(c5ccccc5)c5ccccc5)N4C(=O)C(NC(=O)C(C)NC)C3)c2)CCC2CCC(C(=O)NC(c3ccccc3)c3ccccc3)N2C1=O (configuration not stated) + CCN1C(C(=O)NC23CCC(C(=O)O)(CC2)CC3)C(c2cccc(Cl)c2F)C2(C(=O)Nc3cc(Cl)ccc32)C12CCCCC2
IC50 [1]: > 1 µM
IC50 [2]: > 1 µM
IC50 [3]: > 1 µM
IC50 [4]: > 1 µM
IC50 [5]: > 1 µM
viability, T/C (second compound 0.03 µM, first compound 0.00316 µM): 141%
viability, T/C (second compound 0.03 µM, first compound 0.01 µM): 76.6%
viability, T/C [6]: 86.4%
viability, T/C [7]: 65.2%
viability, T/C [8]: 66%
viability, T/C [9]: 76%
viability, T/C (second compound 0.0949 µM, first compound 0.00316 µM): 111%
viability, T/C (second compound 0.0949 µM, first compound 0.01 µM): 95.8%
viability, T/C [10]: 90.7%
viability, T/C [11]: 101%
viability, T/C [12]: 105%
viability, T/C [13]: 115%
viability, T/C (second compound 0.3 µM, first compound 0.00316 µM): 120%
viability, T/C (second compound 0.3 µM, first compound 0.01 µM): 133%
viability, T/C [14]: 84.3%
viability, T/C [15]: 97.6%
viability, T/C [16]: 94%
viability, T/C [17]: 102%
viability, T/C (second compound 0.949 µM, first compound 0.00316 µM): 87.8%
viability, T/C (second compound 0.949 µM, first compound 0.01 µM): 102%
viability, T/C [18]: 158%
viability, T/C [19]: 116%
viability, T/C [20]: 84.2%
viability, T/C [21]: 106%
viability, T/C (second compound 3 µM, first compound 0.00316 µM): 166%
viability, T/C (second compound 3 µM, first compound 0.01 µM): 102%
viability, T/C [22]: 141%
viability, T/C [23]: 120%
viability, T/C [24]: 151%
viability, T/C [25]: 123%

O=C(c1cc(Cc2n[nH]c(=O)c3ccccc23)ccc1F)N1CCN(C(=O)C2CC2)CC1 + CCN1C(C(=O)NC23CCC(C(=O)O)(CC2)CC3)C(c2cccc(Cl)c2F)C2(C(=O)Nc3cc(Cl)ccc32)C12CCCCC2
IC50 [1]: > 10 µM
IC50 [2]: > 10 µM
IC50 [3]: > 10 µM
IC50 [4]: > 10 µM
IC50 [5]: > 10 µM
viability, T/C [6]: 101%
viability, T/C [7]: 113%
viability, T/C [8]: 68.7%
viability, T/C [9]: 91.9%
viability, T/C (second compound 0.03 µM, first compound 3.16 µM): 86.1%
viability, T/C (second compound 0.03 µM, first compound 10 µM): 63%
viability, T/C [10]: 114%
viability, T/C [11]: 102%
viability, T/C [12]: 99%
viability, T/C [13]: 73.2%
viability, T/C (second compound 0.0949 µM, first compound 3.16 µM): 74.2%
viability, T/C (second compound 0.0949 µM, first compound 10 µM): 74.5%
viability, T/C [14]: 96.9%
viability, T/C [15]: 131%
viability, T/C [16]: 104%
viability, T/C [17]: 87.2%
viability, T/C (second compound 0.3 µM, first compound 3.16 µM): 75.2%
viability, T/C (second compound 0.3 µM, first compound 10 µM): 66.8%
viability, T/C [18]: 123%
viability, T/C [19]: 124%
viability, T/C [20]: 113%
viability, T/C [21]: 113%
viability, T/C (second compound 0.949 µM, first compound 3.16 µM): 93.3%
viability, T/C (second compound 0.949 µM, first compound 10 µM): 88.8%
viability, T/C [22]: 109%
viability, T/C [23]: 137%
viability, T/C [24]: 135%
viability, T/C [25]: 126%
viability, T/C (second compound 3 µM, first compound 3.16 µM): 106%
viability, T/C (second compound 3 µM, first compound 10 µM): 98%

COc1c(OCCCN2CCOCC2)ccc2c3n(c(=NC(=O)c4cnc(N)nc4)nc12)CCN3 + Cc1c(S(C)(=O)=O)c(-c2cc(F)cc(N3CCN(c4ccc(NS(=O)(=O)c5ccc(NC(CCN6CCC(C(=O)OCCCP(=O)(O)O)CC6)CSc6ccccc6)c(S(=O)(=O)C(F)(F)F)c5)cc4)CC3)c2)c(-c2ccc(Cl)cc2)n1C(C)C
IC50 [26]: 0.00811 µM
IC50 [27]: 0.00946 µM
IC50 [28]: < 0.00316 µM
IC50 [29]: < 0.00316 µM
IC50 [30]: 0.173 µM
viability, T/C (second compound 0.1 µM, first compound 0.00316 µM): 58.2%
viability, T/C (second compound 0.1 µM, first compound 0.01 µM): 52.3%
viability, T/C [31]: 30.2%
viability, T/C [32]: 31.4%
viability, T/C [33]: 18%
viability, T/C [34]: 8.91%
viability, T/C (second compound 0.316 µM, first compound 0.00316 µM): 65.2%
viability, T/C (second compound 0.316 µM, first compound 0.01 µM): 53.1%
viability, T/C [35]: 27.2%
viability, T/C [36]: 31.2%
viability, T/C [37]: 13.1%
viability, T/C [38]: 10.8%
viability, T/C (second compound 1 µM, first compound 0.00316 µM): 39.3%
viability, T/C (second compound 1 µM, first compound 0.01 µM): 39.6%
viability, T/C [39]: 38.9%
viability, T/C [40]: 33.2%
viability, T/C [41]: 11%
viability, T/C [42]: 3.88%
viability, T/C (second compound 3.16 µM, first compound 0.00316 µM): 45.4%
viability, T/C (second compound 3.16 µM, first compound 0.01 µM): 50.5%
viability, T/C [43]: 39.9%
viability, T/C [44]: 32%
viability, T/C [45]: 14%
viability, T/C [46]: 2.79%
viability, T/C (second compound 10 µM, first compound 0.00316 µM): 189%
viability, T/C (second compound 10 µM, first compound 0.01 µM): 133%
viability, T/C [47]: 166%
viability, T/C [48]: 87.5%
viability, T/C [49]: 11.1%
viability, T/C [50]: 7%

C#Cc1c(F)ccc2cc(O)cc(-c3ncc4c(N5CC6CCC(C5)N6)nc(OCC56CCCN5CC(F)C6)nc4c3F)c12 (configuration not stated)
viability, T/C (compound 0.0316 µM): 23.2% and 40.7% and 50.5%
viability, T/C (compound 0.1 µM): 28.2% and 48.4% and 47.1%
viability, T/C (compound 0.316 µM): 22.3% and 37.1% and 31.9%
viability, T/C (compound 1 µM): 20.6% and 36.3% and 36.4%
viability, T/C (compound 3.16 µM): 24.6% and 37.5% and 33.1%
viability, T/C (compound 10 µM): 21.9% and 34.4% and 44.3%
IC50 (curve of compound): < 0.0316 µM and 0.0359 µM

O=C(c1cc(Cc2n[nH]c(=O)c3ccccc23)ccc1F)N1CCN(C(=O)C2CC2)CC1 + Cc1c(S(C)(=O)=O)c(-c2cc(F)cc(N3CCN(c4ccc(NS(=O)(=O)c5ccc(NC(CCN6CCC(C(=O)OCCCP(=O)(O)O)CC6)CSc6ccccc6)c(S(=O)(=O)C(F)(F)F)c5)cc4)CC3)c2)c(-c2ccc(Cl)cc2)n1C(C)C
IC50 [26]: 5.69 µM
IC50 [27]: > 10 µM
IC50 [28]: 0.835 µM
IC50 [29]: > 10 µM
IC50 [30]: > 10 µM
viability, T/C [31]: 74.6%
viability, T/C [32]: 73.8%
viability, T/C [33]: 66.1%
viability, T/C [34]: 68.3%
viability, T/C (second compound 0.1 µM, first compound 3.16 µM): 59%
viability, T/C (second compound 0.1 µM, first compound 10 µM): 41.4%
viability, T/C [35]: 51.4%
viability, T/C [36]: 55.3%
viability, T/C [37]: 61.4%
viability, T/C [38]: 68.4%
viability, T/C (second compound 0.316 µM, first compound 3.16 µM): 70.1%
viability, T/C (second compound 0.316 µM, first compound 10 µM): 63.2%
viability, T/C [39]: 68.5%
viability, T/C [40]: 88.3%
viability, T/C [41]: 63.4%
viability, T/C [42]: 45.6%
viability, T/C (second compound 1 µM, first compound 3.16 µM): 52.6%
viability, T/C (second compound 1 µM, first compound 10 µM): 44.4%
viability, T/C [43]: 71.5%
viability, T/C [44]: 50.3%
viability, T/C [45]: 95.8%
viability, T/C [46]: 70.2%
viability, T/C (second compound 3.16 µM, first compound 3.16 µM): 72.9%
viability, T/C (second compound 3.16 µM, first compound 10 µM): 49.8%
viability, T/C [47]: 103%
viability, T/C [48]: 172%
viability, T/C [49]: 117%
viability, T/C [50]: 139%
viability, T/C (second compound 10 µM, first compound 3.16 µM): 102%
viability, T/C (second compound 10 µM, first compound 10 µM): 99.9%
